Results published in patent US5866787A, “Transgenic plants co-expressing a functional human 2-5A system” (Cleveland Clinic Foundation, priority 1995, dated 1999).

Assays:
[1] = test system: murine 2-5A-dependent RNase (truncated recombinant clone ZB1 and murine L cell enzyme); assay: UV covalent crosslinking of 32P-2-5A probe with unlabeled oligonucleotide competitors, murine enzyme; assay type: binding; conditions: for competition with 2-5A probe binding: competitor 100 nM, recombinant 74 kDa protein produced in wheat germ extract
Experimental: FIG. 2A is a specific affinity of truncated murine 2-5A-dependent RNase for 2-5A. UV covalent crosslinking of the ^32 P-2-5A probe (lanes 1-7) to protein is performed after translation reactions in wheat germ extract (5 μl) with murine 2-5A-dependent RNase mRNA (from clone ZB1) (lanes 1-3) or without added RNA (lane 4) or in extract of interferon treated mouse L cells (100 μg of protein) (lanes 5-7). Reactions are without added competitor (lanes 1, 4, and 5) or in the presence of either timer core. (A2'p)2 A, (100 nM) (lanes 2 and 6) or timer 2-5A, p3 (A2'p)2 A (100 nM) (lanes 3 and 7).
Autoradiograms of the dried SDS/10% polyacrylamide gels are shown. Concentrations of the oligonucleotide competitors are indicated. […].
(§1) The synthesis of the 2-5A probe, p(A2'p)2 (br^8 A2'p)2 A[32P]Cp, and its crosslinking to 2-5A-dependent RNase is performed exactly as described. See Nolan-Sorden, N. L. et al., Anal. Biochem., 184:298-304 (1990). Briefly, the 2-5A probe, about 0.7 to 2.5 nM at […], is incubated for about one hour on ice with cell extract prepared as described, Silverman, R. H. and Krause, D., I.R.L. Press, Oxford, England, pp. 149-193 (1987), in the absence or presence of unlabeled oligonucleotide competitors. Covalent crosslinking is done under a uv lamp (308 nm) for one hour on ice and the proteins are separated on SDS/10% polyacrylamide gels. Filter assays for 2-5A binding activity using the 2-5A probe for about one hour on ice, as described in Knight, M. et al., Nature, 288:189-192 (1980).

[2] = test system: recombinant human 2-5A-dependent RNase; assay: UV covalent crosslinking of 2-5A probe with competitors, human enzyme; assay type: binding; conditions: competitor 100 nM; recombinant human enzyme produced in wheat germ extract
Experimental: FIG. 5A is specific affinity of recombinant human 2-5A-dependent RNase for 2-5A. Crosslinking of the 2-5A probe (lanes 1-7) to protein is performed after translation reaction in wheat germ extract (5 λl) with human 2-5A-dependent RNase mRNA (lanes 1-3) or without added RNA (lane 4) or in extract of human interferon a treated (1000 units per ml for 16 h) human HeLa cells (350 μg of protein) (lanes 5-7). Reactions were without added competitor (lanes 1, 4, and 5) or in the presence of either timer core, (A2'p)2 A, (100 nM) (lanes 2 and 6) or timer 2-5A, p3 (A2'p)2 A (100 nM) (lanes 3 and 7). Incubations with ^35 S-methionine are shown in lanes 8 to 12. Lane 8 is with wheat germ extract and human 2-5A-dependent RNase mRNA. Reticulocyte lysate preadsorbed to 2-5A-cellulose is incubated with human 2-5A-dependent RNase mRNA in the absence (lane 9) or presence (lane 10) of cycloheximide, or in the absence of added mRNA (lane 11). […] The positions and relative molecular masses (in kDa) of the marker proteins are indicated.
The synthesis of the 2-5A probe, p(A2'p)2 (br^8 A2'p)2 A[32P]Cp, and its crosslinking to 2-5A-dependent RNase is performed exactly as described. See Nolan-Sorden, N. L. et al., Anal. Biochem., 184:298-304 (1990). […]

2-5A probe = assay: 2-5A binding activity of nested 3'-deletion clones (filter binding and uv crosslinking); conditions: produced in wheat germ extract
Description: See Example and Knight et al. 1980). The positions of the P-loop motifs and the lengths of the translation products are indicated. Clone ZB1 encodes for amino acids designated as 1-656 in Table 2, except for the last 5 amino acid residues which are Lys, Pro, Leu, Ser, and Gly. Clone ZB2 encodes for amino acids designated as 1-619 in Table 2. Clone ZB3 encodes for amino acids designated as 1-515 in Table 2. Clone ZB5 encodes for amino acids designated as 1-474 in Table 2. Clone ZB9 encodes for amino acids designated as 1-403 in Table 2. Clone ZB10 encodes for amino acids designated as 1-365 in Table 2. Clone ZB13 encodes for amino acids designated as 1-294 in Table 2. Clone ZB14 encodes for amino acids designated as […] in Table 2. Clone ZB15 encodes for amino acids designated as 1-218 in Table 2.
The set of nested 3'-deletions of the truncated murine 2-5A-dependent RNase cDNA, ZB1, is generated with exonuclease III/S1 nuclease digestion followed by filling-in with Klenow DNA Polymerase using the "Erase-A-Base" system (Promega).
as §1

[3] = 2-5A probe 2.4 nM, both recombinant and naturally occurring protein

p3 A2'pA
concentration required to prevent 2-5A probe binding [1, 3]: > 10 µM

(A2'p)2 A
concentration required to prevent 2-5A probe binding [1, 3]: 10 µM | competition with 2-5A probe binding [1]: fails to interfere with binding | fold higher concentration than trimer 2-5A required to prevent probe binding ([1]; relative to p3 (A2'p)2 A at about 20 nM): 500 fold | competition with 2-5A probe binding [2]: not prevented

p3 (A2'p)2 A
concentration that prevents the 2-5A probe from binding [1, 3]: about 20 nM | competition with 2-5A probe binding [1]: completely prevents probe binding | competition with 2-5A probe binding [2]: effectively competes

p3 I2'pA2'pA
concentration required to prevent 2-5A probe binding [1, 3]: about 1.0 μM

B1: ZB11: murine 2-5A-dependent RNase deletion clone, amino acid residues 1 to 342 (protein, UniProt Q05921 1-342, looked up, fragment)
chain: METPDYNTPQGGTPSAGSQRTVVEDDSSLIKAVQKGDVVRVQQLLEKGADANACEDTWGWTPLHNAVQAGRVDIVNLLLSHGADPHRRKKNGATPFIIAGIQGDVKLLEILLSCGADVNECDENGFTAFMEAAERGNAEALRFLFAKGANVNLRRQTTKDKRRLKQGGATALMSAAEKGHLEVLRILLNDMKAEVDARDNMGRNALIRTLLNWDCENVEEITSILIQHGADVNVRGERGKTPLIAAVERKHTGLVQMLLSREGINIDARDNEGKTALLIAVDKQLKEIVQLLLEKGADKCDDLVWIARRNHDYHLVKLLLPYVANPDTDPPAGDWSPHSSRW
loss of 2-5A binding activity as compared to clone ZB1 (2-5A probe): about 26%

B2: ZB13: murine 2-5A-dependent RNase deletion clone, amino acids 1 to 294 (protein, UniProt Q05921 1-294, looked up, fragment)
chain: METPDYNTPQGGTPSAGSQRTVVEDDSSLIKAVQKGDVVRVQQLLEKGADANACEDTWGWTPLHNAVQAGRVDIVNLLLSHGADPHRRKKNGATPFIIAGIQGDVKLLEILLSCGADVNECDENGFTAFMEAAERGNAEALRFLFAKGANVNLRRQTTKDKRRLKQGGATALMSAAEKGHLEVLRILLNDMKAEVDARDNMGRNALIRTLLNWDCENVEEITSILIQHGADVNVRGERGKTPLIAAVERKHTGLVQMLLSREGINIDARDNEGKTALLIAVDKQLKEIVQLLLE
2-5A binding activity, % of clone ZB1 (2-5A probe): about 38.3%

B3: ZB14: murine 2-5A-dependent RNase deletion clone, amino acids 1 to 265, one P-loop motif deleted (protein, UniProt Q05921 1-265, looked up, fragment)
chain: METPDYNTPQGGTPSAGSQRTVVEDDSSLIKAVQKGDVVRVQQLLEKGADANACEDTWGWTPLHNAVQAGRVDIVNLLLSHGADPHRRKKNGATPFIIAGIQGDVKLLEILLSCGADVNECDENGFTAFMEAAERGNAEALRFLFAKGANVNLRRQTTKDKRRLKQGGATALMSAAEKGHLEVLRILLNDMKAEVDARDNMGRNALIRTLLNWDCENVEEITSILIQHGADVNVRGERGKTPLIAAVERKHTGLVQMLLSREGIN
2-5A binding activity, % of clone ZB1 (2-5A probe): 1.9%

B4: ZB15: murine 2-5A-dependent RNase deletion clone, amino acids 1 to 218, both P-loop motifs deleted (protein, UniProt Q05921 1-218, looked up, fragment)
chain: METPDYNTPQGGTPSAGSQRTVVEDDSSLIKAVQKGDVVRVQQLLEKGADANACEDTWGWTPLHNAVQAGRVDIVNLLLSHGADPHRRKKNGATPFIIAGIQGDVKLLEILLSCGADVNECDENGFTAFMEAAERGNAEALRFLFAKGANVNLRRQTTKDKRRLKQGGATALMSAAEKGHLEVLRILLNDMKAEVDARDNMGRNALIRTLLNWDCENV
2-5A binding activity, % of clone ZB1 (2-5A probe): completely lacking
